Entries after “also recorded” stand apart in the source; their conditions may differ. Bridge positions count the residues as written; N and C are the ends. Ends that are not written are not given here. Peptide text beside a SMILES is read from it.
Columns and labels:
[1] = tested on: Anti-Factor Xa Activity of the Non-Heparin Glycosaminoglycan Orgaran ®; assay: Anti-Factor Xa assay: neutralization of Orgaran in citrate or plasma in vitro; format: biochemical, human
Protocol: The ability of peptides such as (ARKKAAKA)3VLVLVLVL (SEQ ID NO:5) to neutralize the anti-Factor Xa activity of UFH and LMWH in vitro was tested using the Stachrom Heparin kit (Diagnostica Stago), a standard hematology laboratory assay used to measure the anti-Factor Xa activity of heparin. The assay was performed using the low molecular weight heparin enoxaparin sodium (Lovenox®, Aventis Pharmaceuticals, Inc.), unfractionated heparin (UFH), or the non-heparin glycosaminoglycan danaparoid sodium (Orgaran®, Organon Inc., West Orange, N.J.) in 0.32% citrate or in plasma anticoagulated with 0.32% citrate. Enoxaparin is commonly used clinically as a low molecular weight heparin (LMWH). Danaparoid is commonly used clinically as a non-heparin glycosaminoglycan anticoagulant. Currently, the only FDA approved drug to target UFH is protamine, which is not effective in vivo against LMWH or a non-heparin glycosaminoglycan such as danaparoid. Buffer and ATIII are added to form the heparin/ATIII complex, peptide is added, then Factor Xa, reporter dye substrate for Factor Xa activity, and stop solution, and the dye concentration is read at 405 nm. The absorbance of the dye increases with increasing Factor Xa activity, and thus is inversely proportional to the heparin (anti-Factor Xa activity) concentration. Peptides were tested in plasma obtained from three volunteers (A, B, and C). Platelet function inhibitors PG12 and theophylline were added to the blood immediately upon collection. […]

[2] = tested on: unfractionated heparin (thrombin-induced clot formation); assay: Thrombin neutralization assay: clotting time of citrated plasma in the presence of unfractionated heparin; format: biochemical, human; settings: for Time for clot formation: UFH 0.5 IU/ml
Protocol: It was determined whether heparin-binding peptides of the invention can neutralize unfractionated heparin using the thrombin neutralization assay. The six peptides that were synthesized and used in this Example are: (ARKKAAKA)3VLVLVLVL (SEQ ID NO:5); (ARKKAAKA)(A16)(ARKKAAKA) (SEQ ID NO:30); (ARKKAAKA)4 (SEQ ID NO:31); (AKKARA)6 (SEQ ID NO:32); (ARKKAAKA)3(ARKKCAKA) (SEQ ID NO:33); and cyclized C(ARKKAAKA)4C (SEQ ID NO:34); Citrated plasma was pipetted into a glass tube. Thrombin was added, the tube was manually rotated, and clotting time was determined by observation of clot formation. Normal clotting time is 19-22 seconds.
As a control, to assess the effect of heparin on clot formation, unfractionated heparin was added to the plasma at 0.5 IU anti-thrombin activity/ml and then thrombin was added. Clotting time in the presence of heparin alone was greater than 3 minutes.
To test the effect of peptides, heparin and six peptides at the concentrations indicated in Table 4 were added to the plasma, the mixture was allowed to stand at room temperature for 1 minute, and thrombin was added. The time for the clot to form is indicated. Experiments were performed using plasma from three volunteers—A, B, and C.

[3] = Hemodynamic effects in rats after administration of the LMWH Lovenox; settings: in the presence of LMWH Lovenox
Protocol: Next, experiments were performed in which the animals were treated with the peptides after the administration of the LMWH Lovenox®, as would happen in the clinical situation, because binding of peptides to LMWH would be expected to reduce the effects of the peptides on hemodynamic function.

[4] = Affinity coelectrophoresis (ACE) of peptide binding to radiolabeled low Mr heparin; parameters: species or system pig; settings: pH 7.0, mean and standard deviation of four assays, read-out: Kd (nM), affinity for low molecular weight heparin
Source text: Preparation of Radiolabeled Heparin. Whole heparin from pig intestinal mucosa (Sigma) was tyramine end-labeled and radiolabeled with Na^125I (Amersham, Pharmacia Biotech, Inc., Piscataway, N.J.) to an average specific activity≅1.0×10^7 CPM/μg as described (San Antonio, J. D., et al., Biochemistry, 32:4746-4755, 1993). Radiolabeled heparin was fractionated on Sephadex G-100 (Bio-Rad Laboratories, Hercules, Calif.) and the final≅12% of material to elute was retained as the low Mr material of ≦6,000 (Jordan, R., D. Beeler, and R. Rosenberg, J. Biol. Chem., 254:2902-2913, 1979; Laurent, T. C., et al., Biochem. J., 175:691-701, 1978).
Analysis of Peptide-Heparin Interactions by Affinity Coelectrophoresis (ACE). ACE was used to study interactions between peptides and low molecular weight (low Mr) heparin (WO00/45831). In ACE, trace concentrations of radiolabeled heparin are electrophoresed through agarose lanes containing peptides at various concentrations. These analyses are used to determine the dissociation constants (Kd's). The electrophoretic patterns of radiolabeled heparin are then visualized using a phosphorimager, and the dissociation constant (Kd) corresponds to the protein concentration at which the heparin is half shifted from being fully mobile at very low protein concentrations to maximally retarded at saturating protein concentrations. The lower the Kd value, the higher the affinity.
Binding of radiolabeled heparin to peptides was studied by ACE as detailed elsewhere (San Antonio, J. D., et al., Biochemistry, 32:4746-4755, 1993). […] Briefly, peptides were dissolved in 1×ACE running buffer, 50 mM sodium 3-(N-morpholino)-2-hydroxypropanesulfonate (MOPSO, Sigma)/125 mM sodium acetate, pH 7.0, and serially diluted in running buffer at 2× concentrations. Peptides were then mixed 1:1 with 2% agarose/1% CHAPS, 3-[(3-cholamidopropyl)dimethylammonio]-1-propanesulfonate, (Boehringer Mannheim, Indianapolis, Ind.), and loaded into wells of a 1% agarose gel. Radiolabeled heparin was then loaded in a slot on the anode side of the gel, and electrophoresed through the peptide-containing wells, towards the cathode. Gels were dried and PG mobility was measured with a Phosphorimager (Molecular Dynamics, Sunnyvale, Calif.) by scanning each protein lane and determining the relative radioactivity content per 88-μm pixel through the length of the lane. Retardation coefficient (R) measurements, binding isotherm curve fittings, and apparent Kd value determinations were calculated as detailed previously (Lee, M. K., and A. D. Lander, Proc. Natl. Acad. Sci. USA, 88:2768-2772, 1991; San Antonio, J. D., et al, Biochemistry, 32:4746-4755, 1993).
Retardation coefficients (R) for the migration of low Mr 1^25I-tyramine-heparin through peptides were determined from ACE gel electrophoretograms, and are plotted against peptide concentration. Smooth curves represent non-linear least-squares fits to the equation R=R∞/{1+(Kd/[peptide])^n}.

Row | Compound | Kd [4] | Orgaran Neutralized ([1]; 1 μg/ml Peptide, A Plasma) | Orgaran Neutralized ([1]; 1 μg/ml Peptide, B Plasma) | Orgaran Neutralized ([1]; 1 μg/ml Peptide, C Plasma) | Orgaran Neutralized ([1]; 1 μg/ml Peptide, Citrate) | Orgaran Neutralized ([1]; 6 μg/ml Peptide, A Plasma) | Orgaran Neutralized ([1]; 6 μg/ml Peptide, B Plasma) | Orgaran Neutralized ([1]; 6 μg/ml Peptide, C Plasma) | Orgaran Neutralized ([1]; 6 μg/ml Peptide, Citrate) | Orgaran Neutralized ([1]; 12 μg/ml Peptide, A Plasma) | Orgaran Neutralized ([1]; 12 μg/ml Peptide, B Plasma) | Orgaran Neutralized ([1]; 12 μg/ml Peptide, C Plasma) | Orgaran Neutralized ([1]; 12 μg/ml Peptide, Citrate) | Orgaran Neutralized ([1]; 60 μg/ml Peptide, A Plasma) | Orgaran Neutralized ([1]; 60 μg/ml Peptide, B Plasma) | Orgaran Neutralized ([1]; 60 μg/ml Peptide, C Plasma) | Orgaran Neutralized ([1]; 60 μg/ml Peptide, Citrate) | Orgaran Neutralized ([1]; 120 μg/ml Peptide, A Plasma) | Orgaran Neutralized ([1]; 120 μg/ml Peptide, B Plasma) | Orgaran Neutralized ([1]; 120 μg/ml Peptide, C Plasma) | further results
1 | C[C@@H]1NC(=O)[C@H](C)NC(=O)[C@H](CCCCN)NC(=O)[C@H](CCCCN)NC(=O)[C@H](CCCNC(=N)N)NC(=O)[C@H](C)NC(=O)[C@H](C)NC(=O)[C@H](CCCCN)NC(=O)[C@H](C)NC(=O)[C@H](C)NC(=O)[C@H](CCCCN)NC(=O)[C@H](CCCCN)NC(=O)[C@H](CCCNC(=N)N)NC(=O)[C@H](C)NC(=O)[C@@H](N)CSSC[C@@H](C(=O)O)NC(=O)[C@H](C)NC(=O)[C@H](CCCCN)NC(=O)[C@H](C)NC(=O)[C@H](C)NC(=O)[C@H](CCCCN)NC(=O)[C@H](CCCCN)NC(=O)[C@H](CCCNC(=N)N)NC(=O)[C@H](C)NC(=O)[C@H](C)NC(=O)[C@H](CCCCN)NC(=O)[C@H](C)NC(=O)[C@H](C)NC(=O)[C@H](CCCCN)NC(=O)[C@H](CCCCN)NC(=O)[C@H](CCCNC(=N)N)NC(=O)[C@H](C)NC(=O)[C@H](C)NC(=O)[C@H](CCCCN)NC1=O [C(ARKKAAKA)4C, cyclized C(ARKKAAKA)4C] (H-CARKKAAKAARKKAAKAARKKAAKAARKKAAKAC-OH; disulfide 1-34) | 38 ± 13 nM | 0.016 ± 0.012 U/ml | 0.038 ± 0.036 U/ml | 0.008 ± 0.005 U/ml | 0.072 ± 0.052 U/ml | 0.074 ± 0.049 U/ml | 0.027 ± 0.016 U/ml | 0.030 ± 0.009 U/ml | 0.099 ± 0.062 U/ml | 0.050 ± 0.031 U/ml | 0.082 ± 0.029 U/ml | 0.063 ± 0.025 U/ml | 0.180 ± 0.023 U/ml | 0.287 ± 0.033 U/ml | 0.282 ± 0.020 U/ml | 0.250 ± 0.030 U/ml | 0.319 ± 0.016 U/ml | 0.389 ± 0.118 U/ml | 0.374 ± 0.062 U/ml | 0.335 ± 0.012 U/ml | Orgaran Neutralized ([1]; 120 μg/ml Peptide, Citrate): 0.340 ± 0.010 U/ml; effectiveness in thrombin neutralization assay [2]: effective; Time for clot formation ([2]; 0.35 μg peptide/0.1 ml, plasma A): 37.67 ± 5.25 s; Time for clot formation ([2]; 0.40 μg peptide/0.1 ml, plasma A): 29.00 ± 0.82 s; Time for clot formation ([2]; 0.40 μg peptide/0.1 ml, plasma B): 47.67 ± 8.34 s; Time for clot formation ([2]; 0.40 μg peptide/0.1 ml, plasma C): 56.33 ± 1.70 s; Time for clot formation ([2]; 0.50 μg peptide/0.1 ml, plasma A): 23.67 ± 2.05 s; Time for clot formation ([2]; 0.50 μg peptide/0.1 ml, plasma B): 34.33 ± 1.25 s; Time for clot formation ([2]; 0.50 μg peptide/0.1 ml, plasma C): 43.00 ± 2.45 s; effect on blood pressure and heart rate / toxicity [3]: no, or minimal, adverse effects on blood pressure or heart rate; also recorded: not toxic; effect on blood pressure and heart rate / toxicity ([3]; listed as C(ARKKAAKA)4C-cyclized): All rats tested showed no response
2 | Protamine [reference compound] |  | 0.027 ± 0.004 U/ml | 0.021 ± 0.007 U/ml | 0.017 ± 0.006 U/ml | 0.030 ± 0.015 U/ml | 0.050 ± 0.025 U/ml | 0.040 ± 0.018 U/ml | 0.034 ± 0.021 U/ml | 0.093 ± 0.046 U/ml | 0.016 ± 0.013 U/ml | 0.065 ± 0.014 U/ml | 0.043 ± 0.018 U/ml | 0.308 ± 0.017 U/ml | 0.140 ± 0.021 U/ml | 0.241 ± 0.032 U/ml | 0.234 ± 0.025 U/ml | 0.322 ± 0.038 U/ml | 0.340 ± 0.021 U/ml | 0.364 ± 0.013 U/ml | 0.318 ± 0.019 U/ml | Orgaran Neutralized ([1]; 120 μg/ml Peptide, Citrate): 0.136 ± 0.034 U/ml; blood pressure drop [3]: ≥ 30 mm Hg; duration of blood pressure drop [3]: 10 min; heart rate nadir [3]: about 80 % of normal; rats with blood pressure drop out of rats tested [3]: 10 out of 15

Continued, in another order:

Row | Kd [4] | Compound | Orgaran Neutralized ([1]; 1 μg/ml Peptide, A Plasma) | Orgaran Neutralized ([1]; 1 μg/ml Peptide, B Plasma) | Orgaran Neutralized ([1]; 1 μg/ml Peptide, C Plasma) | Orgaran Neutralized ([1]; 1 μg/ml Peptide, Citrate) | Orgaran Neutralized ([1]; 6 μg/ml Peptide, A Plasma) | Orgaran Neutralized ([1]; 6 μg/ml Peptide, B Plasma) | Orgaran Neutralized ([1]; 6 μg/ml Peptide, C Plasma) | Orgaran Neutralized ([1]; 6 μg/ml Peptide, Citrate) | Orgaran Neutralized ([1]; 12 μg/ml Peptide, A Plasma) | Orgaran Neutralized ([1]; 12 μg/ml Peptide, B Plasma) | Orgaran Neutralized ([1]; 12 μg/ml Peptide, C Plasma) | Orgaran Neutralized ([1]; 12 μg/ml Peptide, Citrate) | Orgaran Neutralized ([1]; 60 μg/ml Peptide, A Plasma) | Orgaran Neutralized ([1]; 60 μg/ml Peptide, B Plasma) | Orgaran Neutralized ([1]; 60 μg/ml Peptide, C Plasma) | Orgaran Neutralized ([1]; 60 μg/ml Peptide, Citrate) | Orgaran Neutralized ([1]; 120 μg/ml Peptide, A Plasma) | Orgaran Neutralized ([1]; 120 μg/ml Peptide, B Plasma) | Orgaran Neutralized ([1]; 120 μg/ml Peptide, C Plasma) | further results
3 | 8327 ± 60 nM | ARKKAAKAAAAAAAAAAAAAAAAAARKKAAKA [ARKKAAKA(A16)ARKKAAKA, reference compound] |  |  |  |  |  |  |  |  |  |  |  |  |  |  |  |  |  |  |  | effectiveness in thrombin neutralization assay [2]: ineffective; Time for clot formation ([2]; 6.0 μg peptide/0.1 ml, plasma B): 55.00 ± 4.08 s; Time for clot formation ([2]; 6.5 μg peptide/0.1 ml, plasma A): 76.33 ± 4.19 s; Time for clot formation ([2]; 6.5 μg peptide/0.1 ml, plasma C): 48.67 ± 7.72 s; Time for clot formation ([2]; 7.0 μg peptide/0.1 ml, plasma A): 61.00 ± 2.94 s; Time for clot formation ([2]; 7.0 μg peptide/0.1 ml, plasma B): 85.67 ± 3.30 s; Time for clot formation ([2]; 7.0 μg peptide/0.1 ml, plasma C): 47.67 ± 3.77 s; Time for clot formation ([2]; 7.5 μg peptide/0.1 ml, plasma A): 58.67 ± 1.89 s; Time for clot formation ([2]; 7.5 μg peptide/0.1 ml, plasma C): 180.0 ± 0.00 s
4 | 44 ± 17 nM | ARKKAAKAARKKAAKAARKKAAKAVLVLVL [(ARKKAAKA)3VLVLVL] |  |  |  |  |  |  |  |  |  |  |  |  |  |  |  |  |  |  |  | 
5 | 48 ± 11 nM | VLVL(ARKKAAKA)3ARKKCAKA (VLVLARKKAAKAARKKAAKAARKKAAKAARKKCAKA; Fragment) |  |  |  |  |  |  |  |  |  |  |  |  |  |  |  |  |  |  |  | 
